Assay results from BindingDB's records for doi:10.1021/bi0488799 (Glaxosmithkline, 2004).
pKi: −log10 of the molar value.

Key:
Details in all cases: pH 5.5; 30 °C
[1] = molecular target: T1, Dimer of Gag-Pol polyprotein [489-587,L499I,L508Q,K509R,E524D,M525I,S526N,M535I,I539V,I543V,I551V,L552P,A560V,V571A,L579M] (Human immunodeficiency virus 1, UniProt P04585, A560V/E524D/I539V/I543V/I551V/K509R/L499I/L508Q/L552P/L579M/M525I/M535I/S526N/V571A); experiment: Fluorometric Activity Assay
T1 construct: 489-587
Protocol: (§1) Enzymatic activity was determined with fluorogenic substrate in the presence and absence of inhibitor. The fluorescence increase due to hydrolysis of the substrate was monitored with an excitation filter of wavelength 340 nm and an emission filter of wavelength 420. Values for the inhibition constants (Ki) were determined by conventional steady-state kinetic techniques.

[2] = molecular target: T2, Dimer of Gag-Pol polyprotein [489-587,I539V] (Human immunodeficiency virus 1, UniProt P04585, I539V); experiment: Kinetic Competitive Displacement Assay
T2 construct: 489-587
Protocol: The method was a competitive displacement assay used to determine binding affinities of other inhibitors relative to that of GW0385. The inhibitor of unknown affinity was used to displace [3H]GW0385 from enzyme-bound [3H]GW0385 (E[3H]GW0385). From the concentration of E[3H]GW0385 at equilibrium, the concentrations of enzyme-bound and free inhibitors were calculated, and the ratio of the Ki value of the unknown to that of GW0385 was determined (Ki,unknown/Ki,GW0385).

[3] = molecular target: T3, Dimer of Gag-Pol polyprotein [489-587,M535I,L552P,A560V,V571F,I573V] (Human immunodeficiency virus 1, UniProt P04585, A560V/I573V/L552P/M535I/V571F); experiment: Fluorometric Activity Assay
T3 construct: 489-587
Protocol: as §1

[4] = molecular target: T4, Dimer of Gag-Pol polyprotein [489-587] (Human immunodeficiency virus 1, UniProt P12497); experiment: Fluorometric Activity Assay
T4 construct: 489-587
Protocol: as §1

[5] = molecular target: T2, Dimer of Gag-Pol polyprotein [489-587,I539V]; experiment: GW0385 Assay
Protocol: (§2) The assay method employed kinetic determinations of values for k1 and k-1, from which value of inhibition constant (Ki ) was determined (k-1/k1). The k1 is calculated from spectrofluorometric data in the presence of saquinavir. The k-1 is calculated from the time course for displacement of [3H]GW0385 from E[3H]GW0385 by nonlabeled GW0385.

[6] = molecular target: T1, Dimer of Gag-Pol polyprotein [489-587,L499I,L508Q,K509R,E524D,M525I,S526N,M535I,I539V,I543V,I551V,L552P,A560V,V571A,L579M]; experiment: GW0385 Assay
Protocol: as §2

| Compound | pKi [1] | pKi [2] | pKi [3] | pKi [4] | pKi [5] | pKi [6] |
| --- | --- | --- | --- | --- | --- | --- |
| CC(C)CN(C[C@@H](O)[C@H](Cc1ccc(OCc2ccccn2)cc1)NC(=O)O[C@H]1CO[C@H]2OCC[C@H]21)S(=O)(=O)c1ccc2c(c1)OCO2 [(3R,3aS,6aR)-hexahydrofuro[2,3-b]furan-3-yl N-[(2S,3R)-4-[2H-1,3-benzodioxole-5-(2-methylpropyl)sulfonamido]-3-hydroxy-1-[4-(pyridin-2-ylmethoxy)phenyl]butan-2-yl]carbamate] | 11.77 | 11.59 |  |  |  |  |
| CC(C)CN(C[C@@H](O)[C@H](Cc1ccc(OCCc2cccs2)cc1)NC(=O)O[C@H]1CO[C@H]2OCC[C@H]21)S(=O)(=O)c1ccc2c(c1)OCO2 [(3R,3aS,6aR)-hexahydrofuro[2,3-b]furan-3-yl N-[(2S,3R)-4-[2H-1,3-benzodioxole-5-(2-methylpropyl)sulfonamido]-3-hydroxy-1-{4-[2-(thiophen-2-yl)ethoxy]phenyl}butan-2-yl]carbamate] | 11.62 | 11.41 |  |  |  |  |
| CNC(=O)OCCCC(C)(C)CN(C[C@@H](O)[C@H](Cc1ccccc1)NC(=O)O[C@H]1CO[C@H]2OCC[C@H]21)S(=O)(=O)c1ccc2c(c1)OCO2 [(3R,3aS,6aR)-hexahydrofuro[2,3-b]furan-3-yl N-[(2S,3R)-4-[2H-1,3-benzodioxole-5-({2,2-dimethyl-5-[(methylcarbamoyl)oxy]pentyl})sulfonamido]-3-hydroxy-1-phenylbutan-2-yl]carbamate] | 10.26 | 10.57 | 10.60 |  |  |  |
| CCOC(=O)NCCCCC(C)(C)CN(C[C@@H](O)[C@H](Cc1ccccc1)NC(=O)O[C@H]1CO[C@H]2OCC[C@H]21)S(=O)(=O)c1ccc2c(c1)OCO2 [(3R,3aS,6aR)-hexahydrofuro[2,3-b]furan-3-yl N-[(2S,3R)-4-[2H-1,3-benzodioxole-5-({6-[(ethoxycarbonyl)amino]-2,2-dimethylhexyl})sulfonamido]-3-hydroxy-1-phenylbutan-2-yl]carbamate] | 11.92 | 11.34 | 11.37 |  |  |  |
| CC(C)CN(C[C@@H](O)[C@H](Cc1ccccc1)NC(=O)O[C@H]1CCOC1)S(=O)(=O)c1ccc(N)cc1 [VX-478] |  |  |  | 10.24 |  |  |
| Cc1nc(COc2ccc(C[C@H](NC(=O)O[C@H]3CO[C@H]4OCC[C@H]43)[C@H](O)CN(CC(C)C)S(=O)(=O)c3ccc4c(c3)OCO4)cc2)cs1 [[3H]GW0385] |  |  |  |  | 11.70 | 11.47 |
